Test results as given in PMC12279193 (Advanced Science, 2025).

Key:
SARS-CoV-2 S-RBD/ACE2 = SARS-CoV-2 S-RBD/ACE2 (Severe acute respiratory syndrome coronavirus 2, UniProt P0DTC2); assay: NanoBiT RBD/ACE2 interaction assay in HEK293 cells; assay type: cell-based
[1] = molecular target: recombinant SARS-CoV-2 S-trimer protein; trimeric spike protein (Severe acute respiratory syndrome coronavirus 2, UniProt P0DTC2); assay: SPR (Biacore T200), spike trimer immobilised on CM5 chip; assay type: binding

For `CN(/N=C/c1ccccc1C(=O)O)c1nc(-c2ccccc2Cl)cs1` [S416], the IC50 (SARS-CoV-2 S-RBD/ACE2) was 3.94 µM and the Kd [1] was 6.88 µM.
